Measured values: patent publication US20130190399A1, “Synthesis and use of omega-3 and omega 6 very long chain polyunsaturated fatty acids (VLC-PUFA)” (MARTEK BIOSCIENCES CORPORATION, priority 2009, published 2013)

Columns and labels:
Type in all cases: cell-based, rat
[1] = test system: primary hippocampal neurons; test: Mitochondrial health (TMRE) after glutamate-induced neurotoxicity; conditions: for EC50: Rattus norvegicus, Hippocampal neuron, 48 h pretreatment, L-glutamic acid 50 μM 60 min, assayed 24 h later, read-out: half-maximal effective concentration (EC50), increase of mitochondrial health after glutamate; for concentrations at which mitochondrial health after glutamate was significantly increased: tested 0.1-30 μM, ANOVA/Tukey vs injured vehicle control
Protocol: (§1) Primary hippocampal neurons were harvested from embryonic day 17-18 rat fetuses using a modified version of previously described protocols (Banker and Cowan, 1977; Brewer et al., 1993) that preferentially select for neuronal growth over glial growth (Brewer, 1997). Pregnant dams were anesthetized via isoflurane on gestational day 18, and the rat fetuses were harvested by Cesarean section. Brains were removed and placed in ice-cold (4° C.) Hibernate EB (Brain Bits, Inc., Springfield, Il, USA) until all of the hippocampi were dissected. During the dissection, brain tissue was kept on an ice-cold block in Hibernate E solution. Dissected hippocampal tissue was washed once in room-temperature Hibernate E (without calcium, Brain Bits, Inc.) to remove divalent cations, and then incubated at 37° C. in a solution consisting of 0.17% trypsin in Hybernate E (without calcium) for 10 minutes. The tissue was subsequently washed once with ice-cold Hybernate E (without calcium) containing 15% fetal bovine serum (Atlas Biologicals, Fort Collins, Colo., USA) and then dissociated by trituration in the same media. Dispersed cell suspensions were centrifuged for 2 minutes at 200 g at 4° C., and resuspended in ice-cold Neurobasal medium (Invitrogen, Carlsbad, Calif., USA) supplemented with 1×B27 (Invitrogen), 100 μg/ml penicillin-streptomycin (Invitrogen), 0.5 mM L-glutamine (Invitrogen) and 0.025 mM L-glutamate (Sigma, St. Louis, Mo., USA). Viable cell number and concentration were determined by trypan blue exclusion and counted using an automated cell counter (Countess, Invitrogen). Cell suspensions were diluted in warm Neurobasal/B27 media and plated at a density of 30,000 cells per well in 96-well plates (Falcon Optilux plates, BD Biosciences, Bedford, Mass., USA) coated with laminin (Sigma) and poly-D-lysine (Sigma). Cultures were maintained in a temperature- (37° C.), humidity- (−100%), and gas- (5% CO2, 9% O2) controlled incubator. Half of the media was removed and replaced with fresh media every other day. All cultures were maintained for 3 days in vitro (DIV) in glutamate-containing media and then maintained an additional 7 DIV (glutamate neurotoxicity experiments) or 8 DIV (hypoxia) in Neurobasal/B27 media without glutamate.
(§2) Very long-chain polyunsaturated fatty acids (VLCPUFAs; 34:6n3, 34:5n3, 28:6n3, 28:5n3, and 28:4n6) were obtained as the free fatty acid and were stored at −20° C. until use. Each VLC-PUFA was dissolved in methanol to an initial concentration of 100 mM and then diluted serially in methanol to obtain 1000× stocks for each concentration tested. These were diluted further in media to obtain the appropriate concentration within the culture wells (final concentrations of 30 μM, 10 μM, 3 μM, 1 μM, 0.3 μM, and 0.1 μM). Controls received methanol similarly diluted in media (final concentration 0.1%). The VLC-PUFAs were added to the cultures 48 hours prior to glutamate insult or hypoxia exposure (described below), and a 50% media change occurred immediately prior to hypoxia exposure or immediately following glutamate exposure.
Cultures were treated with L-glutamic acid (50 μM, pH 7.0) for 60 minutes followed by a complete media change containing the appropriate concentrations of VLC-PUFAs. Cells were assayed for viability and mitochondrial health 24 hours after the glutamate treatment.
Following glutamate exposure or hypoxia, cultures were aspirated with a 96-well plate washer (BioTek, Winooski, Vt., USA) and incubated for 15 minutes at 37° C. with phenol-free Neurobasal media (Invitrogen) containing one of two dye mixtures: 1) Hoechst dye (1:2000 of a 10 μg/ml solution, Invitrogen) and propidium iodide (PI; 1:500 of a 1 μg/ml solution; Invitrogen), or 2) Hoechst dye and tetramethylrhodamine ethyl ester (TMRE; 100 nM; Invitrogen). These dyes identify total cells (Hoechst), dying or dead cells (PI), and functional mitochondria (TMRE). […]

[2] = test system: primary hippocampal neurons; test: Hypoxia, cell death (propidium iodide) after VLC-PUFA pretreatment; conditions: 48 h hypoxia, O2 ≦0.3%, tested 0.1-30 μM
Protocol: as §1, with “All cultures were maintained for 3 days in vitro (DIV) in glutamate-containing media and then maintained an additional 7 DIV (glutamate neurotoxicity experiments) or 8 DIV (hypoxia) in Neurobasal/B27 media without glutamate.” left out

[3] = test system: primary hippocampal neurons; test: Glutamate neurotoxicity, cell death (propidium iodide) after VLC-PUFA pretreatment; conditions: for IC50: Rattus norvegicus, Hippocampal neuron, 48 h pretreatment, L-glutamic acid 50 μM 60 min, assayed 24 h later, read-out: half-maximal inhibitory concentration (IC50), inhibition of cell death due to glutamate exposure; for concentrations at which cell death due to glutamate exposure was significantly inhibited: tested 0.1-30 μM, ANOVA/Tukey vs injured vehicle control, p<0.05
Protocol: as §1, §2
Cultures were treated with L-glutamic acid (50 μM, pH 7.0) for 60 minutes followed by a complete media change containing the appropriate concentrations of VLC-PUFAs. Cells were assayed for viability and mitochondrial health 24 hours after the glutamate treatment. […]

[4] = test system: primary hippocampal neurons; test: Mitochondrial health (TMRE) after hypoxia; conditions: 48 h hypoxia, O2 ≦0.3%; tested 0.1-30 μM
Protocol: Primary hippocampal neurons were harvested from embryonic day 17-18 rat fetuses using a modified version of previously described protocols (Banker and Cowan, 1977; Brewer et al., 1993) that preferentially select for neuronal growth over glial growth (Brewer, 1997). Pregnant dams were anesthetized via isoflurane on gestational day 18, and the rat fetuses were harvested by Cesarean section. Brains were removed and placed in ice-cold (4° C.) Hibernate EB (Brain Bits, Inc., Springfield, Il, USA) until all of the hippocampi were dissected. During the dissection, brain tissue was kept on an ice-cold block in Hibernate E solution. Dissected hippocampal tissue was washed once in room-temperature Hibernate E (without calcium, Brain Bits, Inc.) to remove divalent cations, and then incubated at 37° C. in a solution consisting of 0.17% trypsin in Hybernate E (without calcium) for 10 minutes. The tissue was subsequently washed once with ice-cold Hybernate E (without calcium) containing 15% fetal bovine serum (Atlas Biologicals, Fort Collins, Colo., USA) and then dissociated by trituration in the same media. […] Viable cell number and concentration were determined by trypan blue exclusion and counted using an automated cell counter (Countess, Invitrogen). […]

SMILES | EC50 [1] [nM] | concentrations at which mitochondrial health after glutamate was significantly increased [1] [µM] | effect on hypoxia-induced cell death (in words) [2] | IC50 [3] [nM] | concentrations at which cell death due to glutamate exposure was significantly inhibited [3] [µM] | concentrations at which cell death due to hypoxia was significantly inhibited ([2]; 48 h pretreatment) [µM] | effect on mitochondrial health after hypoxia (in words) [4]
CC/C=C\C/C=C\C/C=C\C/C=C\C/C=C\C/C=C\CCCCCCCCC(=O)O [28:6n3] | 170 | ≥ 3.0 | did not inhibit hypoxia-induced cell death at any concentration tested | 210 | ≥ 0.3 |  | 
CC/C=C\C/C=C\C/C=C\C/C=C\C/C=C\CCCCCCCCCCCCCCCCCC(=O)O [34:5n3] | 680 | 3.0 | exhibited a main effect of treatment, but only one concentration (0.3 μM) approached a significant difference when compared to controls | 690 |  |  | 
CC/C=C\C/C=C\C/C=C\C/C=C\C/C=C\C/C=C\CCCCCCCCCCCCCCC(=O)O [34:6n3] | 250 | ≥ 0.3 |  | 1070 | ≥ 3.0 | 1.0 | did not significantly alter mitochondrial health at the concentrations tested
